Test results published in PubChem BioAssay AID2060891 (Molecular Pharmacology Branch, DTP, NCI, 2025).

System: K98450-129-R-PDC complex spheroid growth, percent test/control
Assay: Anticancer human tumor K98450-129-R-PDC patient-derived colon adenocarcinoma cell line growth inhibition [RAS]
Details: for IC50: curve of first compound; for viability, T/C: stronger effect = lower value
Procedure, shortened: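 Multi-cell-type spheroids: tumor cells plus HUVEC endothelial cells and mesenchymal stem cells. RAS-pathway inhibitors were combined with targeted agents, each dosed in half-log steps down from clinical Cmax, or from 10 microM when Cmax was unknown.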
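Also: spheroids exposed to agents for seven days before the viability readout.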
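For viability, T/C in this document: luminescence used as a proxy for viable cell amount.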

With `C=CC(=O)N1CCN(c2nc(OCC3CCCN3C)nc3c(F)c(-c4nc(N)cc(C)c4C(F)(F)F)c(Cl)cc23)C(C)C1` (centres undefined) + CCn1c(-c2cccnc2C(C)OC)c2c3cc(ccc31)N1CCOC(CC(NC(=O)C(C(C)C)N(C)C(=O)C3(F)CCN(C(=O)C#CC(C)(C)N(C)C)CC3)C(=O)N3CCCC(N3)C(=O)OCC(C)(C)C2)C1 the IC50 (second compound 0.000949 µM) was 179 nM, the IC50 (second compound 0.003 µM) was 112 nM and the IC50 (second compound 0.00949 µM) was 3.58 nM. It also gave an IC50 (second compound 0.03 µM) of under 3.16 nM, an IC50 (second compound 0.0949 µM) of under 3.16 nM and an IC50 (second compound 0.3 µM) of under 3.16 nM. For the same molecule, the viability, T/C (second compound 0.000949 µM, first compound 0.00316 µM) was 81.6%, the viability, T/C (second compound 0.000949 µM, first compound 0.01 µM) was 69.9% and the viability, T/C (second compound 0.000949 µM, first compound 0.0316 µM) was 63.1%. For the same molecule, the viability, T/C (second compound 0.000949 µM, first compound 0.1 µM) was 55.4%, the viability, T/C (second compound 0.000949 µM, first compound 0.316 µM) was 46.6% and the viability, T/C (second compound 0.000949 µM, first compound 1 µM) was 36%. For the same molecule, the viability, T/C (second compound 0.003 µM, first compound 0.00316 µM) was 69.4%, the viability, T/C (second compound 0.003 µM, first compound 0.01 µM) was 54% and the viability, T/C (second compound 0.003 µM, first compound 0.0316 µM) was 52.8%. The viability, T/C (second compound 0.003 µM, first compound 0.1 µM) was 56.2%, the viability, T/C (second compound 0.003 µM, first compound 0.316 µM) was 45.9% and the viability, T/C (second compound 0.003 µM, first compound 1 µM) was 35.2%. It also gave a viability, T/C (second compound 0.00949 µM, first compound 0.00316 µM) of 52.8%, a viability, T/C (second compound 0.00949 µM, first compound 0.01 µM) of 46.8% and a viability, T/C (second compound 0.00949 µM, first compound 0.0316 µM) of 43.8%. The viability, T/C (second compound 0.00949 µM, first compound 0.1 µM) was 44.9%, the viability, T/C (second compound 0.00949 µM, first compound 0.316 µM) was 39.9% and the viability, T/C (second compound 0.00949 µM, first compound 1 µM) was 41.9%. It also gave a viability, T/C (second compound 0.03 µM, first compound 0.00316 µM) of 39.4%, a viability, T/C (second compound 0.03 µM, first compound 0.01 µM) of 37.1% and a viability, T/C (second compound 0.03 µM, first compound 0.0316 µM) of 40.4%. It also gave a viability, T/C (second compound 0.03 µM, first compound 0.1 µM) of 40.7%, a viability, T/C (second compound 0.03 µM, first compound 0.316 µM) of 43.2% and a viability, T/C (second compound 0.03 µM, first compound 1 µM) of 39.9%. For the same molecule, the viability, T/C (second compound 0.0949 µM, first compound 0.00316 µM) was 36.6%, the viability, T/C (second compound 0.0949 µM, first compound 0.01 µM) was 34.3% and the viability, T/C (second compound 0.0949 µM, first compound 0.0316 µM) was 42.1%. It also gave a viability, T/C (second compound 0.0949 µM, first compound 0.1 µM) of 37.2%, a viability, T/C (second compound 0.0949 µM, first compound 0.316 µM) of 43.5% and a viability, T/C (second compound 0.0949 µM, first compound 1 µM) of 33.7%. The viability, T/C (second compound 0.3 µM, first compound 0.00316 µM) was 29.8%, the viability, T/C (second compound 0.3 µM, first compound 0.01 µM) was 35.3% and the viability, T/C (second compound 0.3 µM, first compound 0.0316 µM) was 42.9%. For the same molecule, the viability, T/C (second compound 0.3 µM, first compound 0.1 µM) was 29%, the viability, T/C (second compound 0.3 µM, first compound 0.316 µM) was 36.1% and the viability, T/C (second compound 0.3 µM, first compound 1 µM) was 38%.
In the case of `CC1(C)CCC(Nc2ncc(C(F)(F)F)c(-c3c[nH]c4c(P(C)(C)=O)c(C#N)ccc34)n2)CN1` (centres undefined) + CCn1c(-c2cccnc2C(C)OC)c2c3cc(ccc31)N1CCOC(CC(NC(=O)C(C(C)C)N(C)C(=O)C3(F)CCN(C(=O)C#CC(C)(C)N(C)C)CC3)C(=O)N3CCCC(N3)C(=O)OCC(C)(C)C2)C1, the IC50 (second compound 0.000949 µM) is reported as over 300 nM, the IC50 (second compound 0.003 µM) is reported as over 300 nM and the IC50 (second compound 0.00949 µM) is reported as over 300 nM. It also gave an IC50 (second compound 0.03 µM) of under 0.949 nM, an IC50 (second compound 0.0949 µM) of under 0.949 nM and an IC50 (second compound 0.3 µM) of under 0.949 nM. The viability, T/C (second compound 0.000949 µM, first compound 0.000949 µM) was 88.2%, the viability, T/C (second compound 0.000949 µM, first compound 0.003 µM) was 72.2% and the viability, T/C (second compound 0.000949 µM, first compound 0.00949 µM) was 83.1%. The viability, T/C (second compound 0.000949 µM, first compound 0.03 µM) was 79.9%, the viability, T/C (second compound 0.000949 µM, first compound 0.0949 µM) was 80.8% and the viability, T/C (second compound 0.000949 µM, first compound 0.3 µM) was 53.8%. It also gave a viability, T/C (second compound 0.003 µM, first compound 0.000949 µM) of 72.4%, a viability, T/C (second compound 0.003 µM, first compound 0.003 µM) of 52.9% and a viability, T/C (second compound 0.003 µM, first compound 0.00949 µM) of 64.5%. It also gave a viability, T/C (second compound 0.003 µM, first compound 0.03 µM) of 67.7%, a viability, T/C (second compound 0.003 µM, first compound 0.0949 µM) of 61.1% and a viability, T/C (second compound 0.003 µM, first compound 0.3 µM) of 50.4%. The viability, T/C (second compound 0.00949 µM, first compound 0.000949 µM) was 52.5%, the viability, T/C (second compound 0.00949 µM, first compound 0.003 µM) was 45.5% and the viability, T/C (second compound 0.00949 µM, first compound 0.00949 µM) was 52.7%. The viability, T/C (second compound 0.00949 µM, first compound 0.03 µM) was 53.4%, the viability, T/C (second compound 0.00949 µM, first compound 0.0949 µM) was 51.8% and the viability, T/C (second compound 0.00949 µM, first compound 0.3 µM) was 49.6%. The viability, T/C (second compound 0.03 µM, first compound 0.000949 µM) was 45%, the viability, T/C (second compound 0.03 µM, first compound 0.003 µM) was 42.9% and the viability, T/C (second compound 0.03 µM, first compound 0.00949 µM) was 43.2%. It also gave a viability, T/C (second compound 0.03 µM, first compound 0.03 µM) of 45.1%, a viability, T/C (second compound 0.03 µM, first compound 0.0949 µM) of 48.2% and a viability, T/C (second compound 0.03 µM, first compound 0.3 µM) of 43.5%. The viability, T/C (second compound 0.0949 µM, first compound 0.000949 µM) was 39.2%, the viability, T/C (second compound 0.0949 µM, first compound 0.003 µM) was 41.1% and the viability, T/C (second compound 0.0949 µM, first compound 0.00949 µM) was 44.7%. The viability, T/C (second compound 0.0949 µM, first compound 0.03 µM) was 41.8%, the viability, T/C (second compound 0.0949 µM, first compound 0.0949 µM) was 50.3% and the viability, T/C (second compound 0.0949 µM, first compound 0.3 µM) was 43.1%. It also gave a viability, T/C (second compound 0.3 µM, first compound 0.000949 µM) of 34.3%, a viability, T/C (second compound 0.3 µM, first compound 0.003 µM) of 40.7% and a viability, T/C (second compound 0.3 µM, first compound 0.00949 µM) of 43.1%. It also gave a viability, T/C (second compound 0.3 µM, first compound 0.03 µM) of 36.2%, a viability, T/C (second compound 0.3 µM, first compound 0.0949 µM) of 46.9% and a viability, T/C (second compound 0.3 µM, first compound 0.3 µM) of 42%.
